From patent US8778966B2, “Quinolinone derivatives as PARP and tank inhibitors” (Janssen Pharmaceutica, NV, priority 2007, dated 2014)

How the values were obtained:
Human PARP-1 enzyme = biological target: T1, Human PARP-1 enzyme (Homo sapiens, UniProt P09874); assay: In vitro Scintillation Proximity Assay (SPA) for PARP-1 inhibitory activity; type: biochemical; conditions: read-out: in vitro SPA assay PARP-1 pIC50 (converted)
T1 construct: purchased Trevigen
Procedure: Compounds of the present invention were tested in an in vitro assay based on SPA technology (proprietary to GE healthcare).
In principle, the assay relies upon the well established SPA technology for the detection of poly(ADP-ribosyl)ation of biotinylated target proteins, i.e histones. This ribosylation is induced using nicked DNA activated PARP-1 enzyme and [^3H]-nicotinamide adenine dinucleotide ([^3H]-NAD^+) as ADP-ribosyl donor.
Histones (type II-A, supplier: Sigma) were biotinylated using the biotinylation kit of Amersham and stored aliquoted at −20° C. A stock solution of 100 mg/ml SPA poly(vinyl toluene) (PVT) beads (supplier: Amersham) was made in PBS. A stock solution of 61.6 nM [^3H]-NAD^+ was made by adding [^3H]-NAD^+ (0.1 mCi/ml, supplier: Perkin Elmer) to incubation buffer (50 mM Tris/HCl, pH 8; 0.2 mM DTT; 4 mM MgCl2). A solution of 4 mM NAD^+ (supplier: Sigma) was made. Human PARP-1 enzyme was obtained from Trevigen. Biotinylated histones and PVT-SPA beads were mixed and pre-incubated for 30 min. at room temperature. PARP-1 enzyme (concentration was lot dependent) was mixed with the nicked DNA and the mixture was pre-incubated for 30 min. at 4° C. Equal parts of this histones/PVT-SPA beads solution and PARP-1 enzyme/DNA solution were mixed and 75 μl of this mixture together with 1 μl of compound in DMSO and 25 μl of [^3H]-NAD^+ was added per well into a 96-well microtiterplate. The final concentrations in the incubation mixture were 2 μg/ml for the biotinylated histones, 2 mg/ml for the PVT-SPA beads, 0.25 μg/ml for the nicked DNA and between 0.1-0.2 μg/ml for the PARP-1 enzyme. After incubation of the mixture for 20 min. at room temperature, the reaction was terminated by adding 100 μl of 4 mM NAD^+ in water (final concentration 2 mM) and plates were mixed. The beads were sedimented by centrifugation (10 min, 800 rpm). and plates transferred to a TopCountNXT™ (Packard) for scintillation counting, values were expressed as counts per minute (cpm). For each experiment, controls (containing PARP-1 enzyme and DMSO without compound), a blank incubation (containing DMSO but no PARP-1 enzyme, no DNA or compound) and samples (containing PARP-1 enzyme, DNA and compound dissolved in DMSO) were run in parallel. All compounds tested were dissolved and eventually further diluted in DMSO. A dose-response curve was made wherein the compounds were tested at concentrations between 10^−5M and 3×10^−9M. In each test, the blank value was subtracted from both the control and the sample values. The control sample represented maximal PARP-1 enzyme activity. For each sample, the amount of cpm was expressed as a percentage of the mean cpm value of the controls. When appropriate, IC50-values (concentration of the drug, needed to reduce the PARP-1 enzyme activity to 50% of the control) were computed using linear interpolation between the experimental points just above and below the 50% level. Herein the effects of test compounds are expressed as pIC50 (the negative log value of the IC50-value). As a reference compound, 4-amino-1,8-naphthalimide was included to validate the SPA assay.

TANK-2 enzyme = biological target: T2, TANK-2 enzyme (Homo sapiens, UniProt Q9H2K2); assay: In vitro Scintillation Proximity Assay (SPA) for TANK-2 inhibitory activity; type: biochemical; conditions: in vitro SPA assay TANK-2 pIC50
T2 construct: made in house
T2 sequence (Q9H2K2 1-1166): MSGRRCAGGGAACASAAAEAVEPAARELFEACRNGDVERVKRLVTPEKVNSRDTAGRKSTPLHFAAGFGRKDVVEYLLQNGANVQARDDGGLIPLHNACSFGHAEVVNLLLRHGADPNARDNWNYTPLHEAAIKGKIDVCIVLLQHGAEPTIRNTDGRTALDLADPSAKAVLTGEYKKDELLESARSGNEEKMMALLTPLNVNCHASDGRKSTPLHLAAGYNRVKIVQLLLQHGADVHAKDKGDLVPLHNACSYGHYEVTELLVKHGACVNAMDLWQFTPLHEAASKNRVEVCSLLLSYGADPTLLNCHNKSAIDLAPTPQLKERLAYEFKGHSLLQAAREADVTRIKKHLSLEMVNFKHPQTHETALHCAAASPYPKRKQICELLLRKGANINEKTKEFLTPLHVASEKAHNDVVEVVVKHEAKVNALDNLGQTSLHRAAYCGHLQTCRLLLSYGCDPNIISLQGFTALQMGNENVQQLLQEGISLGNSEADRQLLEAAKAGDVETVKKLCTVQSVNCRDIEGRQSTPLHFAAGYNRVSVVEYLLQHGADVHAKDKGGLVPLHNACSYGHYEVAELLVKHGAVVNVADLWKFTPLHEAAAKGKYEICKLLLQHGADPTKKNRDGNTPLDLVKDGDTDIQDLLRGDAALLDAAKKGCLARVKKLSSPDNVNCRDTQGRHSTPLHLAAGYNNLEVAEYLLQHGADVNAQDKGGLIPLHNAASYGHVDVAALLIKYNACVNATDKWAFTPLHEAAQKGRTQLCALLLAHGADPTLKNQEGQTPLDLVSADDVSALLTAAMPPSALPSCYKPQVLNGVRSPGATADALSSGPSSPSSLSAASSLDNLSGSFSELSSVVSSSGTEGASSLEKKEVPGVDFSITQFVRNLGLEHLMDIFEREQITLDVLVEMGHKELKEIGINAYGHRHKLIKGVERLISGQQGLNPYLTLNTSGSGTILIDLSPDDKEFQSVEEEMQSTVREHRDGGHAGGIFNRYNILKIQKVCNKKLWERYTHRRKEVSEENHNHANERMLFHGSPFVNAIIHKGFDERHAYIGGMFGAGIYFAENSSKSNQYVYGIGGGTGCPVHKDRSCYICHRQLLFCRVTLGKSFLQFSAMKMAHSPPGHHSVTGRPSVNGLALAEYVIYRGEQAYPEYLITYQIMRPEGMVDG
Procedure: Compounds of the present invention were tested in an in vitro assay based on SPA technology with Ni Flash plates (96 or 384 well). In principle, the assay relies upon SPA technology for the detection of auto-poly(ADP-ribosyl)ation of TANK-2 protein using [^3H]-nicotinamide adenine dinucleotide ([^3H]-NAD^+) as ADP-ribosyl donor.
A stock solution of 100 nM [3H]-NAD^+/NAD (0.1 mCi/ml, supplier: Perkin Elmer) and 0.25 μM NAD (Sigma) was made in assay buffer (60 mM Tris/HCl, pH 7.4; 0.9 mM DTT; 6 mM MgCl2). The TANK-2 enzyme was produced as described in EP1238063. 60 μl of assay buffer, together with 1 μl of compound in DMSO, 20 μl of [^3H]-NAD^+/NAD and 20 μl of TANK-2 enzyme (final concentration 8 μg/ml) was added per well into a 96-well Ni-coated flash plate (Perkin Elmer). After incubation of the mixture for 120 min. at room temperature, the reaction was terminated by adding 60 μl of stopsolution (42.6 mg NAD in 6 ml H2O). The plates were covered with a plate sealer and placed in a TopCountNXT™ (Packard) for scintillation counting. Values were expressed as counts per minute (cpm). For each experiment, controls (containing TANK-2 enzyme and DMSO without compound), a blank incubation (containing DMSO but no TANK-2 enzyme or compound) and samples (containing TANK-2 enzyme and compound dissolved in DMSO) were run in parallel. All compounds tested were dissolved and eventually further diluted in DMSO. In first instance, compounds were tested at a concentration of 10^−5M. […] In each test, the blank value was subtracted from both the control and the sample values. The control sample represented maximal TANK-2 enzyme activity. For each sample, the amount of cpm was expressed as a percentage of the mean cpm value of the controls. When appropriate, IC50-values (concentration of the drug, needed to reduce the TANK-2 enzyme activity to 50% of the control) were computed using linear interpolation between the experimental points just above and below the 50% level. Herein the effects of test compounds are expressed as pIC50 (the negative log value of the IC50-value). As reference compounds, 3-aminobenzamide and 4-amino-1,8-naphtalimide were included to validate the SPA assay. Herein the assay was described using 96-well plates. In the assay using 384-well plates the same final concentrations were used and volumes were adapted.

T1 sequence (P09874 whole entry): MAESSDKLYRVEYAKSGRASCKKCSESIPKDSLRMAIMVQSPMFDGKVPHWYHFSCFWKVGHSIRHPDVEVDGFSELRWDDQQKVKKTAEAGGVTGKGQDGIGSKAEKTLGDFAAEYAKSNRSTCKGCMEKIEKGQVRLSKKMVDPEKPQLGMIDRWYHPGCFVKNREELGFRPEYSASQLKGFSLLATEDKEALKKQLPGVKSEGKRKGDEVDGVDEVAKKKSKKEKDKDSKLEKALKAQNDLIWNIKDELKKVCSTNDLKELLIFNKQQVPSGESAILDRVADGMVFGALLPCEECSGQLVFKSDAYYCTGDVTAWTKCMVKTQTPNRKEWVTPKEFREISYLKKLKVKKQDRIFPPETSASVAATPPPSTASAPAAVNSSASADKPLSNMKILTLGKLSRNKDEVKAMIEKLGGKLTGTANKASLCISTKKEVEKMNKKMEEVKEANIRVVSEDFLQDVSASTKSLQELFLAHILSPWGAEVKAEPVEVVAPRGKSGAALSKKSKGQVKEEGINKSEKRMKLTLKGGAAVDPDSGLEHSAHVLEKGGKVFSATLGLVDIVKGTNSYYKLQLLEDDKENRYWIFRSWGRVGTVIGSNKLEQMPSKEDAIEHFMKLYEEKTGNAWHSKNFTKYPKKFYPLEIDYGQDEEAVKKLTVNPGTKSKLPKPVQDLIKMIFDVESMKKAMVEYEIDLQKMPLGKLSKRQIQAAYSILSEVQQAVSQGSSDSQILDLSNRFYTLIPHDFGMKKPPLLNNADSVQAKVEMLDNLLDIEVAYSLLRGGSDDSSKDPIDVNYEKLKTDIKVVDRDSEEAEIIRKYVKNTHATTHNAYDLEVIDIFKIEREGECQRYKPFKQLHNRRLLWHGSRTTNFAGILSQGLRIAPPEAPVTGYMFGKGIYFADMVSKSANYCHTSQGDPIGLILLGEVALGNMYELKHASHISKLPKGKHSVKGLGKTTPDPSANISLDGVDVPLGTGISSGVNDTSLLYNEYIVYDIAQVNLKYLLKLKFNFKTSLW

IC50 (Human PARP-1 enzyme): 0.0501 µM
IC50 (TANK-2 enzyme): 0.0794 µM
melting point: 179 °C
Structure (SMILES): CCc1cc2ccc(C(C)(C#N)Cc3nc(C#N)cc(OC)n3)cc2[nH]c1=O (single isomer, unassigned) [Compound 203]
